Laboratory results published in patent publication US20260041620A1, “NOVEL AMINO ACID BASED SALTS, COMPOSITIONS AND METHODS FOR TREATING SKIN AND IMPROVING SKIN REJUVENATION AND LONGEVITY” (Sytheon Ltd, priority 2023, published 2026).
Read-outs that look alike come from different tables or passages of the source.

Key:
HDAC 11 = molecular target: T1, HDAC 11 (Homo sapiens, UniProt Q96DB2); assay: HDAC 11 fluorogenic assay kit; format: biochemical
T1 construct: purchased BPS Biosciences 50687
T1 sequence (Q96DB2 1-347): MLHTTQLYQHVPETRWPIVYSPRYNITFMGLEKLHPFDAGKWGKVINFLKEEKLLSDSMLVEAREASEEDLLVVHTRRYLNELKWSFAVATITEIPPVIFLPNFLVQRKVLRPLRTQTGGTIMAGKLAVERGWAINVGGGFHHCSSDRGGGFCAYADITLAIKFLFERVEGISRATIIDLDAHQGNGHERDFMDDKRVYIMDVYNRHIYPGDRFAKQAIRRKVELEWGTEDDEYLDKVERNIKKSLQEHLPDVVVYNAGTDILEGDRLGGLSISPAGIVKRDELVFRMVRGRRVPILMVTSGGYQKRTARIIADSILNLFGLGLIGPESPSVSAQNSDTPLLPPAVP
Method: (§1) Test materials were stored at room temperature and stock solutions were prepared at 20 mg/ml in DMSO. Further dilutions were made in sterile distilled water immediately before being added to the reaction mixture containing a substrate, and the reaction was triggered by the addition of purified HDAC enzymes, Double distilled water was the negative control and trichostatin (1.5 ug/ml) was used as a positive control for validation of each study. The test procedure was as directed in the assay kits. The products of the reactions were measured by fluorometry at ex/em 350/450 nm using multi-well plate fluorometer Cytofluor 4000 (Applied Biosystem, Foster City, CA) or using SpectraMax i3× Multi-Mode Detection Platform from Molecular Devices (Sunnyvale, CA).
(§2) Statistical significance was assessed with a two-tail Student test. Deviations of ≤20% as compared to water control with p values below 0.05 were considered statistically significant.

FAAH = molecular target: T2, FAAH (Homo sapiens, UniProt O00519); assay: FAAH fluorescence-based inhibitory assay; format: biochemical
T2 sequence (O00519 1-579): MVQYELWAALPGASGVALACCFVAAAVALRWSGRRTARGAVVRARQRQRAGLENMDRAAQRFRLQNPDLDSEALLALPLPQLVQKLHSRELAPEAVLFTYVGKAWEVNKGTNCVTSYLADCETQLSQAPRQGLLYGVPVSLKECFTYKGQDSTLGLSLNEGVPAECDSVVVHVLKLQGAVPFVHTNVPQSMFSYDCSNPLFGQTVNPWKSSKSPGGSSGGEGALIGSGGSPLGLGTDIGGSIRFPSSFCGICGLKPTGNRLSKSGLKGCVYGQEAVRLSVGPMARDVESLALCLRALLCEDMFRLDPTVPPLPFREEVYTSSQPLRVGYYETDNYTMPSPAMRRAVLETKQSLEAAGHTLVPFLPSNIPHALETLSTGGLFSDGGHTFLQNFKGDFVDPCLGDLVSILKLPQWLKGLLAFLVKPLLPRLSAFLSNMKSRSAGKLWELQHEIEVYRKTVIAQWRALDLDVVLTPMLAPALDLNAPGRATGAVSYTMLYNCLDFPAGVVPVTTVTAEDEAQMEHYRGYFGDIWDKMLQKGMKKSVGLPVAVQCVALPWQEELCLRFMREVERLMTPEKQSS

HDAC 3 = HDAC 3 (Homo sapiens, UniProt O15379)
Method: as §1, §2

HDAC 9 = HDAC 9 (Homo sapiens, UniProt Q9UKV0)
Method: as §1, §2

HDAC 8 = molecular target: T3, HDAC 8 (Homo sapiens, UniProt Q9BY41)
T3 sequence (Q9BY41 1-377): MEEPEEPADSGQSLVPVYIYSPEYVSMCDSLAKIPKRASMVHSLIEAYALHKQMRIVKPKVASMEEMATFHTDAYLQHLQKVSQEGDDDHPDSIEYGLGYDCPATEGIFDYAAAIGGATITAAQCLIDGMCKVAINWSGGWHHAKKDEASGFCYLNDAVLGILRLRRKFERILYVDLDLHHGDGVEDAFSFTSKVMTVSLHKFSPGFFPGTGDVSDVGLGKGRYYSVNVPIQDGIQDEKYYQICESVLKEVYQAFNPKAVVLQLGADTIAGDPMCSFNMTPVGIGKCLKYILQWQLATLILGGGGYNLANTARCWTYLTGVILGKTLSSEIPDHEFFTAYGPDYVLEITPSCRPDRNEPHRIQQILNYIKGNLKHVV
Method: as §1, §2

FABP-5 = molecular target: T4, FABP-5 (Homo sapiens, UniProt Q01469); assay: FABP-5 ELISA inhibitory assay; format: biochemical
T4 construct: purchased Raybiotech 268-10276-1

MAGL = molecular target: T5, MAGL (Homo sapiens, UniProt Q99685); assay: MAGL inhibitory assay; format: biochemical
T5 construct: purchased Cayman 10007812
T5 sequence (Q99685 1-303): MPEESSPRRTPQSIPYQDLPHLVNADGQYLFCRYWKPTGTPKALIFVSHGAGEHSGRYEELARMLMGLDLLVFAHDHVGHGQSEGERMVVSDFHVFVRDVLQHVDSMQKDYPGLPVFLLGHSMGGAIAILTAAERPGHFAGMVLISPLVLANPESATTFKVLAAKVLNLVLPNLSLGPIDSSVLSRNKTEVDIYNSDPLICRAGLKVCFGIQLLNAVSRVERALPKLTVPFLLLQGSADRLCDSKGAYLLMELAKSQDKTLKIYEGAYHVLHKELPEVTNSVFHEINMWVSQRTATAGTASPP
Method: Each study was performed in duplicate and the results averaged.
The final concentration in each well was 10 μl of sample, 5.6 μM MAGL (Cayman Catalog #10007812) and 23.6 μM 2-Arachidonoyl Glycerol (Cayman catalog #62160).

HDAC 4 = HDAC 4 (Homo sapiens, UniProt P56524); assay: HDAC 4 fluorogenic assay kit
HDAC 4, sequence (P56524 whole entry): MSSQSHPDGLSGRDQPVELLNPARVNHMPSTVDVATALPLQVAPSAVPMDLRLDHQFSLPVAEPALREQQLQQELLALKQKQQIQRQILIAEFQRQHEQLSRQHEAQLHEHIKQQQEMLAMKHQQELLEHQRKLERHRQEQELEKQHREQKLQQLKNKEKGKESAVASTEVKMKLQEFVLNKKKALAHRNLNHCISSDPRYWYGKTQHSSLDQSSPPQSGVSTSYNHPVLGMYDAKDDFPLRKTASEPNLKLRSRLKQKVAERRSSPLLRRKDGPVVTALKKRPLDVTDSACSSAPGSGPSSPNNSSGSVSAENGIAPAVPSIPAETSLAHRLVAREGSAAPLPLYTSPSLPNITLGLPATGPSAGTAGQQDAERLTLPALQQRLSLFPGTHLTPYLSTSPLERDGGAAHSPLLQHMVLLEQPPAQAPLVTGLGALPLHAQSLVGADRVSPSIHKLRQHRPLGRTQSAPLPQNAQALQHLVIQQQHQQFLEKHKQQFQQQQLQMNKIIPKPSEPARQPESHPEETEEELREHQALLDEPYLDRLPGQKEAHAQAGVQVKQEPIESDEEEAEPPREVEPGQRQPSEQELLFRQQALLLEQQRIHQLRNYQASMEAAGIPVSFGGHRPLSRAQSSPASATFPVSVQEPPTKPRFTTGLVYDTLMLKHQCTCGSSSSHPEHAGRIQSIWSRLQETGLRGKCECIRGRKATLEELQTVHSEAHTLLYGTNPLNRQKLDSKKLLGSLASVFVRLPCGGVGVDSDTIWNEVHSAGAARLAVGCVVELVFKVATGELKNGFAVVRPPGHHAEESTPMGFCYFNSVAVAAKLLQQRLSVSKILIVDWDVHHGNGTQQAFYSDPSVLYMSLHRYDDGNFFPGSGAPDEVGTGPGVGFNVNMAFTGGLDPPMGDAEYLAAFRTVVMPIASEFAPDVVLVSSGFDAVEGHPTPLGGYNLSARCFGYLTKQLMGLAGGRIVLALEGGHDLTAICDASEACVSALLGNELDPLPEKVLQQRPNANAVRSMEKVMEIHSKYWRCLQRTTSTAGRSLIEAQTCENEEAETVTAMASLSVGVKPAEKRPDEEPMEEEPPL
Method: as §1, §2

HDAC 9, sequence (Q9UKV0 whole entry): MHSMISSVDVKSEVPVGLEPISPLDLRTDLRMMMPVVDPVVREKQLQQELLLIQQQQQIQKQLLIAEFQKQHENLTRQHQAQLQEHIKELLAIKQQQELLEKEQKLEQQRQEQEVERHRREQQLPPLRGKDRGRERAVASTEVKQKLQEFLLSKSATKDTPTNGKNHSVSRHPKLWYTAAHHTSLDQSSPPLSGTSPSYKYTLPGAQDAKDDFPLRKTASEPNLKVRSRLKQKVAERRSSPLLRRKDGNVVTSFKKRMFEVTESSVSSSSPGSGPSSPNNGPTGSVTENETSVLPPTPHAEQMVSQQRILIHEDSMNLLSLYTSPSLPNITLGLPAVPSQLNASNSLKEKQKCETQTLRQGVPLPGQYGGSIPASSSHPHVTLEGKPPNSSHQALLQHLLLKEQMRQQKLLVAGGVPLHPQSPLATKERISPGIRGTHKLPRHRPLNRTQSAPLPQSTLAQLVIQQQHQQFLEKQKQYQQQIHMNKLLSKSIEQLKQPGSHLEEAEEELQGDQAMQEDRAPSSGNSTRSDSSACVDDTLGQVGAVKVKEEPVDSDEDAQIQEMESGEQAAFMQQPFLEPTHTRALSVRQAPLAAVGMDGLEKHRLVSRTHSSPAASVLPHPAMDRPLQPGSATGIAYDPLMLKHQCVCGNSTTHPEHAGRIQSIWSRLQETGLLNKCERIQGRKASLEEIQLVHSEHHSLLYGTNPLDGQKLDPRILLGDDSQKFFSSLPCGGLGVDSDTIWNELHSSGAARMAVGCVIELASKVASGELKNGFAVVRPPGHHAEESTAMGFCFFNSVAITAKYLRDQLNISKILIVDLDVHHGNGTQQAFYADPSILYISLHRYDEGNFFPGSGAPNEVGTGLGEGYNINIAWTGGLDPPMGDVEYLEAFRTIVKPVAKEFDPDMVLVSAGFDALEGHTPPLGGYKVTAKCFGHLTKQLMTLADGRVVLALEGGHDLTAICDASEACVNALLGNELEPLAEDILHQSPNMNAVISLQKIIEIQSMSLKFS
HDAC 3, sequence (O15379 whole entry): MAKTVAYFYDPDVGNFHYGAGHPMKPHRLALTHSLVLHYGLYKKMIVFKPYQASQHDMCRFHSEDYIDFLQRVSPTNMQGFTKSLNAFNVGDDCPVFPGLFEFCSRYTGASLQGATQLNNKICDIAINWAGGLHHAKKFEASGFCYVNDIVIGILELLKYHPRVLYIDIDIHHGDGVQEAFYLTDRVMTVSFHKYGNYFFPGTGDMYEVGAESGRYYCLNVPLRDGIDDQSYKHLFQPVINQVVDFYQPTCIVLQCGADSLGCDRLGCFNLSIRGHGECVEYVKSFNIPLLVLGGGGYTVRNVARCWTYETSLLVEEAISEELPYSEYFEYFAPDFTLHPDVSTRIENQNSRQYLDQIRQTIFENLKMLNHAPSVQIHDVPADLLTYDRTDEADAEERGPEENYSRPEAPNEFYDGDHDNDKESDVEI
HDAC 3, sequence (Q9Y618 395-489 partner limits assumed): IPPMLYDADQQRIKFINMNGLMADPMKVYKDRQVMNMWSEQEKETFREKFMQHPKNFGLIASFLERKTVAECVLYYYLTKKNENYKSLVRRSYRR
T4 sequence (Q01469 whole entry): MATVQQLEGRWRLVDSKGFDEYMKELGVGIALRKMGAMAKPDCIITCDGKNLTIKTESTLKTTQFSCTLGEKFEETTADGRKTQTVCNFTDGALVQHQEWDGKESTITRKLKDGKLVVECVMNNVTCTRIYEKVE

Compound	HDAC 11 activity, % of water-treated controls (HDAC 11; 25 ug/ml) [%]	HDAC 11 activity, % of water-treated controls (HDAC 11; 50 ug/ml) [%]	HDAC 11 activity, % of water-treated controls (HDAC 11; 100 ug/ml) [%]	HDAC 11 activity, % of water-treated controls (HDAC 11; 200 ug/ml) [%]	FAAH IC50 (FAAH) [µg/mL]	HDAC 3 activity, % of water-treated controls (HDAC 3; 50 ug/ml) [%]	HDAC 3 activity, % of water-treated controls (HDAC 3; 200 ug/ml) [%]	HDAC 9 activity, % of water-treated controls (HDAC 9; 5 ug/ml) [%]	HDAC 9 activity, % of water-treated controls (HDAC 9; 25 ug/ml) [%]	HDAC 9 activity, % of water-treated controls (HDAC 9; 50 ug/ml) [%]	HDAC 9 activity, % of water-treated controls (HDAC 9; 100 ug/ml) [%]	HDAC 9 activity, % of water-treated controls (HDAC 9; 200 ug/ml) [%]	HDAC 8 activity, % of water-treated controls (HDAC 8; 5 ug/ml) [%]	HDAC 8 activity, % of water-treated controls (HDAC 8; 25 ug/ml) [%]	HDAC 8 activity, % of water-treated controls (HDAC 8; 50 ug/ml) [%]	HDAC 8 activity, % of water-treated controls (HDAC 8; 100 ug/ml) [%]	HDAC 8 activity, % of water-treated controls (HDAC 8; 200 ug/ml) [%]	FABP-5 IC50 (FABP-5)	MAGL IC50 (MAGL) [µg/mL]	HDAC 4 activity, % of water-treated controls (HDAC 4; 25 ug/ml) [%]	other results
CCCC(=O)NCCCCC(NC(=O)CCC)C(=O)[O-].CCCC(=O)NCCCCC(NC(=O)CCC)C(=O)[O-].[Ca+2] (centres unmarked) [Ca di-(di-n-butyryl lysinate), calcium di-(di-n-butyryl lysinate)]	106	100	101	97	213.6	120	119	212	178	242	289	258	91	148	174	155	111	786 µg/mL	37.6	–	HDAC 3 activity, % of water-treated controls (HDAC 3; 25 ug/ml): 116%; HDAC 3 activity, % of water-treated controls (HDAC 3; 100 ug/ml): 121%
Zinc Di-lysinate [Zn dilysinate]	91	84	47	38	791.8	8	5	21	18	15	15	16	13	13	14	13	12	3,014 μg/ml	207.0	100	HDAC 4 activity, % of water-treated controls (HDAC 4; 50 ug/ml): 92%; HDAC 4 activity, % of water-treated controls (HDAC 4; 100 ug/ml): 63%; HDAC 3 activity, % of water-treated controls (HDAC 3; 10 ug/ml): 18%
CCCC(=O)NCCCC[C@H](NC(=O)CCC)C(=O)[O-].CCCC(=O)NCCCC[C@H](NC(=O)CCC)C(=O)[O-].[Zn+2] [Zn di-(di-n-butyryl lysinate), Zinc di-(di-n-butyryl lysinate)]	63	17	22	43	368.7	5	4	39	29	25	19	20	15	15	15	13	17	644 µg/mL	88.8	120	HDAC 11 activity, % of water-treated controls (HDAC 11; 5 ug/ml): 102%; HDAC 4 activity, % of water-treated controls (HDAC 4; 50 ug/ml): 60%; HDAC 4 activity, % of water-treated controls (HDAC 4; 100 ug/ml): 39%; HDAC 3 activity, % of water-treated controls (HDAC 3; 25 ug/ml): 14%
CCCC(=O)[O-].[Na+] [Sodium butyrate, reference compound]	–	89	87	84	–	98	60	–	–	55	53	57	–	–	25	20	20	–	–	93	HDAC 11 activity, % of water-treated controls (HDAC 11; 400 ug/ml): 91%; HDAC 4 activity, % of water-treated controls (HDAC 4; 50 ug/ml): 96%; HDAC 4 activity, % of water-treated controls (HDAC 4; 100 ug/ml): 96%; IC50 (FAAH): 7.31 mM; HDAC 3 activity, % of water-treated controls (HDAC 3; 100 ug/ml): 82%; HDAC 3 activity, % of water-treated controls (HDAC 3; 400 ug/ml): 49%; HDAC 9 activity, % of water-treated controls (HDAC 9; 400 ug/ml): 58%; HDAC 8 activity, % of water-treated controls (HDAC 8; 400 ug/ml): 14%; IC50 (MAGL): 5.5 mM
CCCC(=O)N[C@@H](CC(C)C)C(=O)[O-].CCCC(=O)N[C@@H](CC(C)C)C(=O)[O-].[Zn+2] [Zn di-(n-butyryl leucinate), Zinc di-(n-butyryl leucinate)]	100	93	71	39	41.3	–	–	15	49	44	30	22	7	16	16	16	14	390.5 µg/mL	88.3	–	HDAC 11 activity, % of water-treated controls (HDAC 11; 5 ug/ml): 102%
